# According to PMC7700221, “Antiproliferative Homoleptic and Heteroleptic Phosphino Silver(I) Complexes: Effect of Ligand Combination on Their Biological Mechanism of Action” (Molecules, 2020):
# Where two headings read alike, the source gives them in different places.
# What was measured:
# [1] = molecular target: human TrxR1 (Homo sapiens, UniProt Q16881); conditions: isolated human TrxR1
# [2] = test system: TrxR; conditions: 2008 cells, 18 h, 2.5 µM
# Description: TrxR inhibition was also evaluated in 2008 cells treated for 18 h with equimolar concentrations (2.5 µM) of all phosphino silver(I) derivatives and of AgNO3.
# The 2008 cells were incubated for 18 h with tested compounds. Subsequently, cells were washed twice with Phosphate Buffer Solution (PBS) and lysed. TrxR activity was tested by measuring NADPH-dependent reduction of DTNB and glutathione peroxidase (GPx) activity was followed at 340 nm.
# [3] = test system: A549 lung cancer cells; conditions: read-out: IC50 (µM) ± S.D. A549; 72 h, MTT test
# [4] = test system: BxPC3 pancreatic cancer cells; conditions: read-out: IC50 (µM) ± S.D. BxPC3; 72 h, MTT test
# [5] = test system: C13* cisplatin-resistant ovarian cancer cells
# [6] = test system: human cancer cell line panel; conditions: read-out: average IC50; average over the six cancer cell lines, 72 h MTT
# [7] = test system: A431 cervical carcinoma cells; conditions: read-out: IC50 (µM) ± S.D. A431; 72 h, MTT test
# [8] = test system: A375 melanoma cells; conditions: read-out: IC50 (µM) ± S.D. A375; 72 h, MTT test
# [9] = test system: MCF-7 breast cancer cells; conditions: read-out: IC50 (µM) ± S.D. MCF-7; 72 h, MTT test
# [10] = test system: 2008 ovarian cancer cells; conditions: read-out: IC50 (µM) ± D.S. 2008; 72 h, MTT test, cisplatin-sensitive cells
# [11] = test system: HCT-15 colon cancer cells; conditions: for times more effective than cisplatin, HCT-15: HCT-15 cells, 72 h MTT, versus cisplatin
# [12] = test system: HCT-15 colon cancer cells; assay: cells; conditions: Homo sapiens, HCT-15, 72 h, read-out: IC50 (µM) ± S.D. HCT-15
# [13] = test system: A431 cervical carcinoma cells; assay: cells; conditions: Homo sapiens, A-431, 72 h, read-out: IC50 (µM) ± S.D. A431
# [14] = test system: MCF-7 breast cancer cells; assay: cells; conditions: Homo sapiens, MCF7, 72 h, read-out: IC50 (µM) ± S.D. MCF-7
# [15] = test system: A549 lung cancer cells; assay: cells; conditions: Homo sapiens, A549, 72 h, read-out: IC50 (µM) ± S.D. A549
# [16] = test system: BxPC3 pancreatic cancer cells; assay: cells; conditions: Homo sapiens, BXPC-3, 72 h, read-out: IC50 (µM) ± S.D. BxPC3
# [17] = test system: A375 melanoma cells; assay: cells; conditions: Homo sapiens, A-375, 72 h, read-out: IC50 (µM) ± S.D. A375
# [18] = test system: 2008 cells; conditions: 48 h, IC50 concentrations
# Description: About 10^6 2008 cells were seeded in 24-well plates and, after 24 h incubation, were treated with the tested compounds and incubated for additional 24 h. Cells were then washed with cold PBS, harvested and directly fixed with 1.5% glutaraldehyde buffer with 0.2 M sodium cacodylate, pH 7.4. After washing with buffer and postfixation with 1% OsO4 in 0.2 M cacodylate buffer, specimens were dehydrated and embedded in epoxy resin (Epon Araldite). Sagittal serial sections (1 μm) were counterstained with toluidine blue; thin sections (90 nm) were given contrast by staining with uranyl acetate and lead citrate. Micrographs were taken with a Hitachi H-600 electron microscope (Hitachi, Tokyo, Japan) operating at 75 kV.
# [19] = test system: 2008 cells; conditions: IC50 concentrations, 24 or 48 h
# Description: In particular, 2008 cells were treated for 24 or 48 h with IC50 concentrations of tested Ag(I) complexes, and the percentage of cells with hypopolarized mitochondrial membrane potential was determined fluorimetrically by means of the Mito-ID® Membrane Potential Kit.
# The ΔΨ was assayed using the Mito-ID® Membrane Potential Kit according to the manufacturer’s instructions (Enzo Life Sciences, Farmingdale, NY). Briefly, 2008 cells (8 × 10^3 per well) were seeded in 96-well plates; after 24 h, cells were washed with PBS and loaded with Mito-ID Detection Reagent for 30 min at 37 °C in the dark. Afterwards, cells were incubated with increasing concentrations of tested complexes. Fluorescence intensity was estimated using a plate reader (Fluoroskan Ascent FL, Labsystems, Finland) at 490 (excitation) and 590 nm (emission). Carbonyl cyanide m-chlorophenyl hydrazone (CCCP, 4 μM), a chemical inhibitor of the oxidative phosphorylation, was used as positive control.
# 2008 cells were treated for 24 h or 48 h with IC50 concentrations of tested complexes or CCCP (3 μM). The percentage of cells with hypopolarized mitochondrial membrane potential was determined by Mito-ID® Membrane Potential Kit. Data are the means of three independent experiments. Error bars indicate S.D.
# [20] = test system: CT-DNA
# Description: From the observed spectra, KSV was calculated according to the classical Stern–Volmer equation (Figure S16B).
# The UV–Vis absorption spectroscopic studies and the DNA binding experiments were performed at
# Experiments were performed by maintaining a fixed CT-DNA concentration (30
# Sample solutions were scanned in the range
# 200−500 nm on a computer-controlled Varian Coulter DU 800 spectrophotometer.
# EB–DNA competition experiments
# The ethidium bromide (EB) displacement experiments were performed by titration with aliquots of
# tested compounds of a Tris buffer solution containing 10 μM DNA (8.0–15 kbp) and 0.33 μM EB
# (saturated binding levels). The fluorescence spectrum of the solution was obtained by exciting at 520
# nm and measuring the emission spectra at 587 nm.
# determined from the slope of the diagram F0/F versus r.
# [21] = test system: caspase-9; conditions: 2008 cells, IC50 concentration, 24 h
# Description: (§1) The 2008 cells (1 × 10^6) were treated for 24 h with the IC50 doses of tested compounds, harvested and homogenized in a lysis buffer [1% Triton X-100, 320 nM sucrose, 5 mM EDTA, 10 mM Tris–HCl and 2 mM DTT (1,4-dithio-DL-threitol) buffer (pH 7.6)]. Protein aliquots (100 μg) were stained at 37 °C for 60 min with fluorescent caspase-3 (N-Acetyl-Asp-Glu-Val-Asp-AMC, AMC = 7-amino-4-methylcoumarin) or caspase-9 (Ac-Leu-Glu-His-Asp-AMC) substrate (Sigma Co.). Substrate hydrolysis was measured after 60 min by monitoring the release of AMC using a spectrofluorometer (excitation at 370 nm, emission at 460 nm).
# (§2) Effect of silver(I) compounds on caspase-3 and -9 activation. […] Data are the means of at least three independent experiments. Error bars indicate SD.
# [22] = test system: 2008 cells; conditions: 24 h or 48 h
# Description: The 2008 cells (2 × 10^5) were seeded in a six-well plate in growth medium (4 mL). After 24 h, cells were incubated for 24 h with increasing concentrations of tested compounds. Subsequently, the thiol content was measured as previously described [43].
# (A) Sulfhydryl content in 2008-treated cancer cells incubated for 24 h or 48 h with tested silver(I) compounds. The sulfhydryl group amount was determined by the DTNB assay.
# [23] = test system: 2008 cells; conditions: IC50 of compounds
# Description: The production of ROS was measured in 2008 cells (10^4 per well) grown for 24 h in a 96-well plate in RPMI medium without phenol red (Sigma Chemical Co.). Cells were then washed with PBS and loaded with 10 μM 5-(and-6)-chloromethyl-2′,7′-dichlorodihydrofluorescein diacetate acetyl ester (CM–H2DCFDA) (Molecular Probes-Invitrogen, Eugene, OR) for 25 min, in the dark. Afterwards, cells were washed with PBS and incubated with increasing concentrations of tested compounds. Fluorescence increase was estimated utilizing the wavelengths of 485 nm (excitation) and 527 nm (emission) in a Fluoroskan Ascent FL (Labsystems, Finland) plate reader.
# Error bars indicate S.D. (B) effect of silver(I) compounds on hydrogen peroxide formation in 2008 cells. 2008 cells were pre-incubated in PBS/10 mM glucose medium for 20 min at 37 °C in presence of 10 µM CM-DCFDA and then treated with IC50 of silver(I) compounds.
# [24] = test system: caspase-3; conditions: 2008 cells, IC50, 24 or 48 h
# Description: as §1, §2
# [25] = test system: 2008 cells (cellular DNA fragmentation); conditions: 6 h
# Description: About 4 × 10^4 2008 cells were seeded in 25 cm^2 flasks in growth medium (6 mL). After 24 h, cells were incubated for 3h with 2.5µM of tested compounds. Cells were washed twice with cold PBS, harvested, centrifuged, and DNA fragmentation was measured by the alkaline comet assay. Low melting point agarose, 300 μL (Trevigen Inc., Gaithersburg, MD, USA) was heated to 37 °C and combined with 2 × 10^5 cells per mL cell suspension. Each well of a 20-well CometSlide was filled with 30 μL of the cell/agarose suspension. The slides were placed in a 4 °C refrigerator in the dark for 15 min to solidify. Slides were then immersed in 50 mL of pre-chilled lysis solution containing Trizma base, Triton X-100, DMSO and left at 4 °C for 30 min to facilitate cell membrane and histone removal. After draining excess liquid, the slides were transferred to 50 mL of freshly prepared (same day) alkaline DNA unwinding solution, (200 mmol/L NaOH, 1 mmol/L EDTA, pH > 13) and incubated at room temperature in the dark for 20 min. After the unwinding step, electrophoresis was performed at 21 V for 30 min. Slides were then rinsed with distilled water and fixed 5 min in 70% ethanol. Slides were dried and stained 5 min at 4 °C with SYBR Green I (Trevigen, Inc.) diluted 1:10000 in 10 mmol/L Tris pH 7.5, 1 mmol/L EDTA, drained to remove excess staining solution and thoroughly dried at room temperature in the dark. Micrographs were taken with a Zeiss LSM-800 confocal microscope (Zeiss, Oberkochen, Germany).
# Sequence of caspase-9 (P55211 whole entry): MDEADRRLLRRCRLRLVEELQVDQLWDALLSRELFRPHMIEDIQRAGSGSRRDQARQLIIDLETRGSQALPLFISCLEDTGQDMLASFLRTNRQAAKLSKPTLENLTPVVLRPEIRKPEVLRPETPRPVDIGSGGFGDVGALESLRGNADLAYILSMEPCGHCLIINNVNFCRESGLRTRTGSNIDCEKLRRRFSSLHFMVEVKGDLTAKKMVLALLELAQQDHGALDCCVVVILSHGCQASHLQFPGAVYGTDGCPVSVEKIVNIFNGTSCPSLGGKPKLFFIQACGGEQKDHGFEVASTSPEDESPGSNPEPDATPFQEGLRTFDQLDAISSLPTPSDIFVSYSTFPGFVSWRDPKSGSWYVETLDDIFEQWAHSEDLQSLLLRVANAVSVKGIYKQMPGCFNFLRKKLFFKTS
# Sequence of human TrxR1 (Q16881 151-649 limits assumed): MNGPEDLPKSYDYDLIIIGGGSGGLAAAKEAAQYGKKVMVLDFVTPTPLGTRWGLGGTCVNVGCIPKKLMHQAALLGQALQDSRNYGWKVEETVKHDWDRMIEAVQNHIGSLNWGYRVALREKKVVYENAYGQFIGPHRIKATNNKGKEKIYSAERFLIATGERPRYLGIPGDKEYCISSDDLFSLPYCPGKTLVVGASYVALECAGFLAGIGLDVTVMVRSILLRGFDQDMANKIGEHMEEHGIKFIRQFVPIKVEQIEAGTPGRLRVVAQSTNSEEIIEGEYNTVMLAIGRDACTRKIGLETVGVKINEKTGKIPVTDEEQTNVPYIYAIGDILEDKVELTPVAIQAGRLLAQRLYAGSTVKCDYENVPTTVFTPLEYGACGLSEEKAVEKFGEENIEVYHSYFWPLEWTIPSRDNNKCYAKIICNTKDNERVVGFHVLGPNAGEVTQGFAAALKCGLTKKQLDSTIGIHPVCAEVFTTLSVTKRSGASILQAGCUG
Molecule,reduction of total cellular TrxR activity [2],IC50 [12],IC50 [13],IC50 [14],IC50 [15],IC50 [16],IC50 [17],"times more effective than cisplatin, HCT-15 [11]",other results
AgNO3,12%,–,–,–,–,–,–,–,"TrxR1 inhibition, in words [1]: effective in inhibiting the redox enzyme activity at nanomolar level"
Cisplatin,–,–,–,–,–,–,–,–,"IC50 [3]: 8.4 ± 0.9 µM; IC50 [4]: 10.2 ± 1.7 µM; RF ([5]; RF = IC50 resistant/IC50 parental cell lines (C13*/2008)): 9.5; IC50 ([5]; read-out: IC50 (µM) ± D.S. C13*, 72 h, MTT test, cisplatin-resistant cells): 21.5 ± 3 µM; IC50 [6]: 7.9 µM; IC50 [7]: 2.1 ± 0.4 µM; IC50 [8]: 4 ± 1 µM; IC50 [9]: 7.6 ± 3 µM; IC50 [10]: 2.3 ± 1.1 µM; IC50 ([11]; read-out: IC50 (µM) ± S.D. HCT-15, 72 h, MTT test): 15.5 ± 2.5 µM"
"CC(=O)N1CN2CN(C(C)=O)CP(C2)C1 [DAPTA, 3,7-diacetyl-1,3,7-triaza-5-phosphabicyclo [3.3.1]nonane]",–,67.1 ± 3.1 µM,> 100 µM,85.3 ± 4 µM,> 100 µM,89.5 ± 4.1 µM,> 100 µM,–,–
[Ag(PCN)2]BF4 [Compound 9],about 70%,–,–,–,–,–,–,roughly 4.4 fold,–
O=S1(=O)N2CN3CN1CP(C3)C2 [PTA-SO2],–,> 100 µM,56 ± 3.5 µM,69.5 ± 3.4 µM,> 100 µM,> 100 µM,> 100 µM,–,–
"N#CCCP(CCC#N)CCC#N [PCN, tris(cyanoethyl)phosphine]",–,> 100 µM,> 100 µM,> 100 µM,> 100 µM,> 100 µM,> 100 µM,–,–
[HB(pz)3]Ag(PPh3) [Compound 5],about 75%,–,–,–,–,–,–,about 7 fold,mitochondrial morphology by TEM [18]: mitochondria with disrupted cristae and a significant increase in volume (swelling); cells with hypopolarized mitochondrial membrane potential [19]: increase in the percentage of hypopolarized cells similar to that induced by reference compound carbonyl cyanide-m-chlorophenylhydrazone (CCCP); modification of DNA absorption bands [20]: slight hyperchromic effect at 263 nm; enhancement in caspase-9 activity compared to control cells [21]: 3.3 fold; cellular sulfhydryl content [22]: lowest levels of cellular sulfhydryl groups; basal ROS / hydrogen peroxide production [23]: increase in basal hydrogen peroxide formation rather similar to that obtained with antimycin; caspase-3 activation [24]: time-dependent activation of caspase-3; increase of well-formed comets ([25]; IC50 dose): about 69%
"c1ccc(P(c2ccccc2)c2ccccc2)cc1 [PPh3, triphenylphosphine]",–,54.1 ± 4.2 µM,47.5 ± 1.1 µM,34.2 ± 3.4 µM,30.1 ± 2.1 µM,62.2 ± 2.2 µM,52.3 ± 2.5 µM,–,"DNA damage in comet assay, in words [25]: scarcely effective in increasing comet tail lengths"
[Ag(PPh3)4]BF4 [Compound 10],about 75%,–,–,–,–,–,–,roughly 4.4 fold,"mitochondrial morphology by TEM [18]: mitochondria with disrupted cristae and a significant increase in volume (swelling); cells with hypopolarized mitochondrial membrane potential [19]: increase in the percentage of hypopolarized cells similar to that induced by reference compound carbonyl cyanide-m-chlorophenylhydrazone (CCCP); modification of DNA absorption bands [20]: no significant modifications in DNA properties; enhancement in caspase-9 activity compared to control cells [21]: 2.6 fold; cellular sulfhydryl content [22]: lowest levels of cellular sulfhydryl groups; basal ROS / hydrogen peroxide production [23]: increase in basal hydrogen peroxide formation rather similar to that obtained with antimycin; caspase-3 activation [24]: time-dependent activation of caspase-3; DNA damage in comet assay, in words [25]: barely effective in provoking DNA damage"
"C1N2CN3CN1CP(C2)C3 [PTA, 1,3,5-triaza-7-phosphaadamantane]",–,> 100 µM,> 100 µM,> 100 µM,> 100 µM,> 100 µM,> 100 µM,–,–
